The assay deals with T1, PenA1 β-lactamase (class A carbapenemase) (Burkholderia multivorans, UniProt A0A0H3KN52).
T1 construct: gene ampC
The assay can be described thus: steady-state β-lactamase inhibition kinetics (Ki app, k2/K, koff). The assay is classed as biochemical. The following applies: read-out: Taniborbactam.

T1 sequence (A0A0H3KN52 entry or part of it): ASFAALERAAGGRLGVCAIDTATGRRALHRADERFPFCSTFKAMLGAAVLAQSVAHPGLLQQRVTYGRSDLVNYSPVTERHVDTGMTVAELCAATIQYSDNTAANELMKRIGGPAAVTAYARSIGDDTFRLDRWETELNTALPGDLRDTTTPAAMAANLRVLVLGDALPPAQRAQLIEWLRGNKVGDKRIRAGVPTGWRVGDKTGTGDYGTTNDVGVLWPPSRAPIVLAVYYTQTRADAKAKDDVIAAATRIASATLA

For the molecule `NCCN[C@H]1CC[C@H](CC(=O)N[C@H]2Cc3cccc(C(=O)O)c3OB2O)CC1` [taniborbactam], the Ki was found to be 400 ± 40 nM.

These data come from article PMC10648927, “Examining the activity of cefepime-taniborbactam against Burkholderia cepacia complex and Burkholderia gladioli isolated from cystic fibrosis patients in the United States” (Antimicrobial Agents and Chemotherapy, 2023).
